Laboratory results from patent publication US11753408B2, “Compounds and method for blocking transmission of malarial parasite” (The United States of America, as represented by the …, priority 2016, dated 2023).
Where two headings read alike, the source gives them in different places.

Key:
PAMPA permeability = type: in vitro ADME
Solubility at pH 7.4 = type: physicochemical
[1] = tested on: Asexual parasites of P. falciparum strain 3D7; test: In vitro drug activity on asexual parasites (SYBR Green assay); type: cell-based, Plasmodium falciparum
Experimental: Cell culture. Asexual parasites of P. falciparum strain 3D7 were cultured as described previously [Trager W, et al., Journal of Parasitology 2005, 91: 484-486], Stage III-V gametocytes were selected and enriched with 3-day treatment with 50 mM N-acetylglucosamine (NAG) and the following Percoll density gradient centrifugation after gametocyte production [Tanaka T Q, et al., Molecular and Biochemical Parasitology, 2011, 111: 160-163], Gametocytes of HB3 and Dd2 strains were produced and then set up for assay in a similar process. HepG2 cells (ATCC, cat. no. 77400) were cultured in 175-cm^2 tissue culture flasks with 30 ml growth medium at 37° C. in a 5% CO2 humidified atmosphere. Growth medium was made with Dulbecco's Modified Eagle Medium with 10% fetal bovine serum (FBS). Growth medium was replaced every other day and cells were passed at 75% confluence.
Asexual parasites of P. falciparum strain 3D7 were cultured as described previously (Trager, W. et al., J. Parasitol. 2005, 91(3): 484-486). Drug activity on asexual stage parasites was tested using a SYBR Green assay as described previously (Eastman, R. T. et al., Antimicrob. Agents Chemother. 2013, 57(1): 425-435; Smilkstein, M. et al., Antimicrob. Agents Chemother. 2004, 48(5): 1803-1806). Briefly, parasites were diluted to 0.5% parasitemia in complete culture medium with 2% hematocrit and drugs diluted in DMSO (≤0.5%) and were loaded into a 96-well plate (200 μl/well). No drug and RBC alone wells were included as positive and background controls, respectively, and each testing condition was examined in duplicated. After 72 h incubation under the standard culture condition and a freeze-thaw lysis step at −80° C. and room temperature, 100 μl/well of lysis buffer containing SYBR Green I was added to the parasite culture and incubated for 30 min at room temperature. The fluorescence of each well was measured at 520 nm following excitation at 490 nm using a FLUOstar Optima™ microplate reader (BMG Labtech).

[2] = Microsomal stability (rat); type: in vitro ADME; conditions: rat microsomes
mTOR = mTOR (Homo sapiens, UniProt P42345); test: mTOR activity (no method described); type: biochemical
[3] = P. falciparum 3D7 asexual parasites, 72 h, SYBR Green

SMILES	PAMPA Permeability (×10^6 cm/s) (PAMPA permeability)	Sol @ pH 7.4 (ug/mL) (Solubility at pH 7.4)	EC50 [1, 3] [nM]	Microsomal Stability (rat) T1/2 [2] [min]	PAMPA Permeability (PAMPA permeability) [×10⁻⁶ cm/s]	Sol @ pH 7.4 (Solubility at pH 7.4) [ug/mL]	EC50 [1] [nM]	mTOR (mTOR)
Cc1cc(S(C)(=O)=O)ccc1-n1c(=O)ccc2cnc3ccc(-c4ccc(CN(C)C)cc4)cc3c21 [Compound 69]	828.3 ×10^6 cm/s	>73	1940	>30				
Cc1cc(S(C)(=O)=O)ccc1-n1c(=O)ccc2cnc3ccc(-c4ccc(N)nc4)cc3c21 [Compound 70]	148.4 ×10^6 cm/s	1.2	20.1	31.3				
CN(C)CCOc1ccc(-c2ccc3ncc4ccc(=O)n(-c5ccc(S(C)(=O)=O)cc5)c4c3c2)cc1 [Compound 71]	133.5 ×10^6 cm/s	2	56.6	>30				
O=C(NCC(F)(F)F)c1ccc(-n2c(=O)ccc3cnc4ccc(-c5ccc(Cl)cc5)cc4c32)cc1 [Compound 89]				>30	< 1	<1	52.1	2.689 µM
CN(C)CCNC(=O)c1ccc(-n2c(=O)ccc3cnc4ccc(-c5ccc(Cl)cc5)cc4c32)cc1 [Compound 90]				>30	802	13.6	74.1	19.84 µM
O=C(NC1CC1)c1ccc(-n2c(=O)ccc3cnc4ccc(-c5ccc(F)cc5)cc4c32)cc1 [Compound 91]				>30	54.2	<1	33	4.415 µM
O=C(NC1CC1)c1ccc(-n2c(=O)ccc3cnc4ccc(-c5ccc(Cl)cc5)nc4c32)cc1 [Compound 93]				>30	76.3	<1	27.9	0.4507 µM
O=C(NC1CN(CCO)C1)c1ccc(-n2c(=O)ccc3cnc4ccc(-c5ccc(Cl)cc5)cc4c32)cc1 [Compound 94]				>30	1.9	13.6	24.9	4.188 µM
CN(C)CCN1CCN(C(=O)c2ccc(-n3c(=O)ccc4cnc5ccc(-c6ccc(Cl)cc6)cc5c43)cc2)CC1 [Compound 95]				>30	674	54.7	15.7	1.731 µM
O=C(NC1CCNC1)c1ccc(-n2c(=O)ccc3cnc4ccc(-c5ccc(Cl)cc5)cc4c32)cc1 (centres unmarked) [Compound 96]				>30	7.8	11.4	37.3	1.291 µM
NC1(c2ccc(-c3ccc4ncc5ccc(=O)n(-c6ccc(C(=O)NC7CC7)cc6)c5c4c3)cc2)CC1 [Compound 97]				>30	35.8	7.1	101	1.4 µM
O=C(O)c1cc(Cl)ccc1-c1ccc2ncc3ccc(=O)n(-c4ccc(C(=O)N5CCOCC5)cc4)c3c2c1 [Compound 135]				>30.0	3	>80.0	77800	inactive
CC(C)(C)c1ccc(-c2ccc3ncc4ccc(=O)n(-c5ccc(C(=O)N6CCOCC6)cc5)c4c3c2)cc1 [Compound 196]				18	85.9	<1		100 µM
CNCc1ccc(-c2ccc3ncc4ccc(=O)n(-c5ccc(C(=O)N6CCOCC6)cc5)c4c3c2)cc1 [Compound 198]				>30	6.1	>75	264	13.84 µM
COc1cc(C(=O)N2CCOCC2)ccc1-n1c(=O)ccc2cnc3ccc(-c4ccc(Cl)cc4)cc3c21 [Compound 199]				5.6	1440	1.4	109	16.51 µM
CNCc1cc(-n2c(=O)ccc3cnc4ccc(-c5ccc(Cl)cc5)cc4c32)ccc1C(=O)N1CCOCC1 [Compound 200]					1070	7.2	60	15.37 µM
CC(C)c1ccc(-c2ccc3ncc4ccc(=O)n(-c5ccc(C(=O)N6CCOCC6)cc5)c4c3c2)cc1 [Compound 201]				12.6	13.8	<1	1620	17.28 µM
CN(C)CCOc1ccc(-c2ccc3ncc4ccc(=O)n(-c5ccc(C(=O)N6CCOCC6)cc5)c4c3c2)cc1 [Compound 202]				>30	415	57.8	120	3.267 µM
COc1cc(C(=O)NC2CC2)ccc1-n1c(=O)ccc2cnc3ccc(-c4ccc(C5(N)CC5)cc4)cc3c21 [Compound 205]					456	2.2	177	1.061 µM
Cc1cc(C(=O)NC2CC2)ccc1-n1c(=O)ccc2cnc3ccc(-c4ccc(F)cc4)cc3c21 [Compound 223]					1180	3.4	58	7.119 µM
Cc1cc(C(=O)NC2CC2)ccc1-n1c(=O)ccc2cnc3ccc(-c4ccc(C5(N)CC5)cc4)cc3c21 [Compound 224]					< 1	>74	46000	100 µM
NCCCN1Cc2cc(-n3c(=O)ccc4cnc5ccc(-c6ccc(Cl)cc6)cc5c43)ccc2C1=O [Compound 343]	<2.5 ×10^6 cm/s	13.4	20.9	>30				
CC(C)(C)OC(=O)CN1Cc2cc(-n3c(=O)ccc4cnc5ccc(-c6ccc(Cl)cc6)cc5c43)ccc2C1=O [Compound 364]	75.9 ×10^6 cm/s	2.7	4580	>30				
O=C1NC(=O)c2cc(-n3c(=O)ccc4cnc5ccc(-c6ccc(Cl)cc6)cc5c43)ccc21 [Compound 379]	31 ×10^6 cm/s	<1	2960	23				
O=C1NCc2cc(-n3c(=O)ccc4cnc5ccc(-c6ccc(OC7CCNCC7)cc6)cc5c43)ccc21 [Compound 380]	<10.7 ×10^6 cm/s	2.6	310	>30				
